Measurements published in ChEMBL document CHEMBL1201862, “PubChem BioAssay data set” (2004).
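48-hour exposure; five concentrations; linearly interpolated endpoints. The concentration for 50% growth inhibition is given as GI50.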 Calls of active or inactive are those of the source. No stated cut-off is given here; in the data, active = GI50 up to about 1.1 µM and inactive = higher.

How the values were obtained:
Assay in all cases: NCI-60 cell line screen, 48 h
OVCAR-3 = test system: OVCAR-3
SR = test system: SR
786-0 = test system: 786-0
HOP-62 = test system: HOP-62
MDA-N = test system: MDA-N
OVCAR-4 = test system: OVCAR-4
SK-OV-3 = test system: SK-OV-3
IGROV-1 = test system: IGROV-1
A549 = test system: A549
MDA-MB-231 = test system: MDA-MB-231
SF-268 = test system: SF-268
NCI-H460 = test system: NCI-H460
MDA-MB-435 = test system: MDA-MB-435
CCRF-CEM = test system: CCRF-CEM
NCI-H522 = test system: NCI-H522
CAKI-1 = test system: CAKI-1
RXF 393 = test system: RXF 393
UACC-62 = test system: UACC-62
HL-60 = test system: HL-60
NCI/ADR-RES = test system: NCI/ADR-RES

| SMILES | GI50 (OVCAR-3) | GI50 (SR) | GI50 (786-0) | GI50 (HOP-62) | GI50 (MDA-N) | GI50 (OVCAR-4) | GI50 (SK-OV-3) | GI50 (IGROV-1) | GI50 (A549) | GI50 (MDA-MB-231) | GI50 (SF-268) | GI50 (NCI-H460) | GI50 (MDA-MB-435) | GI50 (CCRF-CEM) | GI50 (NCI-H522) | GI50 (CAKI-1) | GI50 (RXF 393) | GI50 (UACC-62) | GI50 (HL-60) | GI50 (NCI/ADR-RES) |
| --- | --- | --- | --- | --- | --- | --- | --- | --- | --- | --- | --- | --- | --- | --- | --- | --- | --- | --- | --- | --- |
| CC(C)Cc1ccc(C(C)/C=C2\CCC(CN3CCCCC3)C2=O)cc1 (stereo not drawn) | 4.03 µM (inactive) | 1.65 µM (inactive) | 1.85 µM (inactive) | 8.69 µM (inactive) | 3.7 µM (inactive) | 3.78 µM (inactive) | 20.5 µM (inactive) | 4.25 µM (inactive) | 20 µM (inactive) | 4.89 µM (inactive) | 3.66 µM (inactive) | 26.7 µM (inactive) | 13.6 µM (inactive) | 1.5 µM (inactive) | 1.35 µM (inactive) | 6.87 µM (inactive) | 2.52 µM (inactive) | 10.5 µM (inactive) | 1.12 µM (inactive) | – |
| CCn1c(=O)c2c3ccc(OC(C)=O)cc3[nH]c2c2ccc(OC(C)=O)cc21 | 32 µM (inactive) | 36.6 µM (inactive) | 58.1 µM (inactive) | 58.1 µM (inactive) | 35.2 µM (inactive) | 57.4 µM (inactive) | 44.3 µM (inactive) | 53.1 µM (inactive) | 64.7 µM (inactive) | 33.1 µM (inactive) | 35.8 µM (inactive) | 29 µM (inactive) | 41 µM (inactive) | 15.2 µM (inactive) | 37.2 µM (inactive) | 61.5 µM (inactive) | 34.2 µM (inactive) | 24.1 µM (inactive) | – | > 100 µM (inactive) |
| COc1cc2c(c(OC)c1OC)-c1c(cc3c(c1OC)OCO3)CC(C)C(C)(O)C2OC(=O)c1ccccc1 (stereo not drawn) | 29.9 µM (inactive) | 17.7 µM (inactive) | 55.1 µM (inactive) | > 100 µM (inactive) | 60.7 µM (inactive) | 35.3 µM (inactive) | 60.4 µM (inactive) | 38.3 µM (inactive) | 42.1 µM (inactive) | 20.2 µM (inactive) | 53.5 µM (inactive) | 33.3 µM (inactive) | 55 µM (inactive) | 25.9 µM (inactive) | 24.6 µM (inactive) | 33 µM (inactive) | 27.9 µM (inactive) | 56 µM (inactive) | 19.5 µM (inactive) | – |
| O=P1(Oc2ccccc2)NCc2ncccc2O1 (stereo not drawn) | > 100 µM (inactive) | > 100 µM (inactive) | > 100 µM (inactive) | > 100 µM (inactive) | > 100 µM (inactive) | > 100 µM (inactive) | – | > 100 µM (inactive) | > 100 µM (inactive) | > 100 µM (inactive) | – | > 100 µM (inactive) | > 100 µM (inactive) | > 100 µM (inactive) | – | > 100 µM (inactive) | > 100 µM (inactive) | > 100 µM (inactive) | – | > 100 µM (inactive) |
| COc1ccc(N2C(=O)C3c4[nH]c5ccc(F)cc5c4C4CCC(c5ccccc5)CC4C3C2=O)cc1 (stereo not drawn) | 38.3 µM (inactive) | 6.93 µM (inactive) | 3.56 µM (inactive) | 14.3 µM (inactive) | 27.4 µM (inactive) | 12.7 µM (inactive) | 22.5 µM (inactive) | 20.1 µM (inactive) | 11.6 µM (inactive) | 15.3 µM (inactive) | 5.81 µM (inactive) | 10 µM (inactive) | 16.6 µM (inactive) | 2.26 µM (inactive) | 13 µM (inactive) | 19.8 µM (inactive) | – | 11.9 µM (inactive) | – | 45.9 µM (inactive) |
| S=C1/C(=N/c2ccccc2)N(c2ccccc2)/C(=N\c2cccc[n+]2Cc2ccccc2)N1c1ccccc1 | 18.5 µM (inactive) | 15.3 µM (inactive) | 15.8 µM (inactive) | 13 µM (inactive) | 11.5 µM (inactive) | – | 21.7 µM (inactive) | 22.5 µM (inactive) | 20.9 µM (inactive) | 14.9 µM (inactive) | 20.6 µM (inactive) | 18.7 µM (inactive) | 10.6 µM (inactive) | – | 13.3 µM (inactive) | 18.9 µM (inactive) | 13.4 µM (inactive) | 11.9 µM (inactive) | – | 39.9 µM (inactive) |
| CNc1ncnc2c1cnn2COCC(O)CO (stereo not drawn) | > 100 µM (inactive) | > 100 µM (inactive) | > 100 µM (inactive) | > 100 µM (inactive) | > 100 µM (inactive) | > 100 µM (inactive) | > 100 µM (inactive) | > 100 µM (inactive) | > 100 µM (inactive) | > 100 µM (inactive) | > 100 µM (inactive) | > 100 µM (inactive) | > 100 µM (inactive) | > 100 µM (inactive) | > 100 µM (inactive) | > 100 µM (inactive) | > 100 µM (inactive) | > 100 µM (inactive) | – | > 100 µM (inactive) |
| COc1cc2c(cc1OC)C1=Cc3ccc(OC)c(OC)c3C(C#N)N1CC2 (stereo not drawn) | 34.2 µM (inactive) | – | 78.5 µM (inactive) | 42.4 µM (inactive) | 33.7 µM (inactive) | 67 µM (inactive) | > 100 µM (inactive) | – | 56.4 µM (inactive) | 28.8 µM (inactive) | 29.7 µM (inactive) | 31.7 µM (inactive) | 25.9 µM (inactive) | 37.9 µM (inactive) | 30 µM (inactive) | > 100 µM (inactive) | – | 17.1 µM (inactive) | 39 µM (inactive) | > 100 µM (inactive) |
| Fc1cc(-c2ncc(Cl)cc2Cl)c2cccccc1-2 | > 100 µM (inactive) | – | > 100 µM (inactive) | > 100 µM (inactive) | > 100 µM (inactive) | – | > 100 µM (inactive) | > 100 µM (inactive) | > 100 µM (inactive) | > 100 µM (inactive) | > 100 µM (inactive) | > 100 µM (inactive) | – | – | > 100 µM (inactive) | > 100 µM (inactive) | 92.5 µM (inactive) | > 100 µM (inactive) | – | > 100 µM (inactive) |
| CCOC(=O)NN(C(=O)OCC)C(C(=O)C1=CCCCC1)N(NC(=O)OCC)C(=O)OCC | > 100 µM (inactive) | > 100 µM (inactive) | > 100 µM (inactive) | > 100 µM (inactive) | > 100 µM (inactive) | > 100 µM (inactive) | > 100 µM (inactive) | > 100 µM (inactive) | > 100 µM (inactive) | > 100 µM (inactive) | > 100 µM (inactive) | > 100 µM (inactive) | > 100 µM (inactive) | – | > 100 µM (inactive) | > 100 µM (inactive) | > 100 µM (inactive) | – | – | > 100 µM (inactive) |
| O=C1CC(c2cccc(F)c2)Nc2cc3c(cc21)OCO3 (stereo not drawn) | 0.0521 µM (active) | – | 0.0468 µM (active) | 7.38 µM (inactive) | 0.0113 µM (active) | 1.8 µM (inactive) | 0.0955 µM (active) | 0.0483 µM (active) | 0.0363 µM (active) | 0.149 µM (active) | 0.0914 µM (active) | 0.0418 µM (active) | 0.0136 µM (active) | 0.033 µM (active) | 0.0208 µM (active) | 0.051 µM (active) | 0.0247 µM (active) | 0.0543 µM (active) | – | 0.027 µM (active) |
| CSc1cc(Cl)c(C)cc1S(=O)(=O)NC(=O)NNc1ccc(Cl)cc1 | > 100 µM (inactive) | 70 µM (inactive) | > 100 µM (inactive) | > 100 µM (inactive) | > 100 µM (inactive) | > 100 µM (inactive) | > 100 µM (inactive) | > 100 µM (inactive) | > 100 µM (inactive) | > 100 µM (inactive) | > 100 µM (inactive) | > 100 µM (inactive) | > 100 µM (inactive) | – | 70.3 µM (inactive) | 94.6 µM (inactive) | 99.1 µM (inactive) | – | – | > 100 µM (inactive) |
| O=C(O)CSc1nnc2c3ccccc3c3ccccc3c2n1 | 33.3 µM (inactive) | 31.9 µM (inactive) | 56.2 µM (inactive) | 46 µM (inactive) | 73.8 µM (inactive) | 45.6 µM (inactive) | 71 µM (inactive) | 55.6 µM (inactive) | 49.5 µM (inactive) | 67.3 µM (inactive) | 56.1 µM (inactive) | 31.8 µM (inactive) | 52 µM (inactive) | – | 49.9 µM (inactive) | > 100 µM (inactive) | 57.9 µM (inactive) | 61.9 µM (inactive) | – | > 100 µM (inactive) |
| CC1CN=C(N(C(=O)Nc2ccc(Cl)cc2)c2cccc(Cl)c2)S1 (stereo not drawn) | 40.6 µM (inactive) | 29.3 µM (inactive) | 23.9 µM (inactive) | > 100 µM (inactive) | 24.9 µM (inactive) | 46.3 µM (inactive) | > 100 µM (inactive) | 24.4 µM (inactive) | 25.6 µM (inactive) | 39.3 µM (inactive) | 54.2 µM (inactive) | 27.1 µM (inactive) | – | 17.8 µM (inactive) | – | 12.9 µM (inactive) | – | – | 48.2 µM (inactive) | 19.2 µM (inactive) |
| COc1ccc(C)cc1NC(=S)C#N | 27.1 µM (inactive) | – | > 100 µM (inactive) | 29.6 µM (inactive) | > 100 µM (inactive) | – | 27.8 µM (inactive) | – | > 100 µM (inactive) | > 100 µM (inactive) | 27.5 µM (inactive) | – | > 100 µM (inactive) | 71 µM (inactive) | – | > 100 µM (inactive) | 28.1 µM (inactive) | 34.4 µM (inactive) | > 100 µM (inactive) | 27.4 µM (inactive) |
| COc1ccc2[nH]c3c(c2c1)CCc1c(OC)cccc1-3 | > 100 µM (inactive) | > 100 µM (inactive) | > 100 µM (inactive) | 53.8 µM (inactive) | > 100 µM (inactive) | 40.3 µM (inactive) | > 100 µM (inactive) | > 100 µM (inactive) | > 100 µM (inactive) | > 100 µM (inactive) | > 100 µM (inactive) | > 100 µM (inactive) | > 100 µM (inactive) | 52.2 µM (inactive) | 87.1 µM (inactive) | > 100 µM (inactive) | – | > 100 µM (inactive) | – | > 100 µM (inactive) |
